Key:
hHCRTR1 = biological target: hHCRTR1; set-up: method as in PMID 9821961; conditions: 37°C; cited from earlier work
HCRTR1 = biological target: T1, HCRTR1 (Rattus norvegicus, UniProt P56718); test: in vivo; format: in vivo
T1 construct: from tissue; host or cells: coronal brain sections of male Sprague-Dawley rats (locus coeruleus)
T1 sequence (P56718 1-416): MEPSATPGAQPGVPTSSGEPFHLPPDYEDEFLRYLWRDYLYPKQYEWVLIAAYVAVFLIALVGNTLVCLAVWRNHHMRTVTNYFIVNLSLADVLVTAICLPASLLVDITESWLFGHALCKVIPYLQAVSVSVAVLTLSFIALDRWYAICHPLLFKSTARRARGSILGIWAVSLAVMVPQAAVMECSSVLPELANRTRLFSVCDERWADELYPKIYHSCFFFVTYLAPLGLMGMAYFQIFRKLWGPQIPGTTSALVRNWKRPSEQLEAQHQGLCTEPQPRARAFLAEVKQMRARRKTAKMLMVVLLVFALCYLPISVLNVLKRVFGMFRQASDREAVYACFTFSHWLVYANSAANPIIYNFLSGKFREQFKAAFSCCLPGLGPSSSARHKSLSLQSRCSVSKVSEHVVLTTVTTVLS

in vivo = conditions: male, Sprague-Dawley, rat
Experimental: This study was performed at F. Hoffmann-La Roche. Sixty-five male Sprague-Dawley rats, housed 5 per cage (light onset: 12∶00), were injected intraperitoneally (ip) with either vehicle (1.25% hydroxypropyl methylcellulose (HPMC), 0.1% docusate sodium) or almorexant (30 mg/kg in 1.25% HPMC, 0.1% docusate sodium) at the mid-dark phase (ZT18; i.e., 6 h after lights-off), and returned to their home cage. Groups (n = 5 per group) of vehicle- or almorexant-treated animals were then sacrificed by decapitation 0.5, 2, 4, 8 or 12 h after the injection. An extra group of non-injected rats (n = 5) was also sampled at ZT18. Plasma was collected and stored at −80°C until assayed. Brains were rapidly dissected, frozen on dry ice, and stored at −80°C. Series of coronal brain sections (14 µm) were cut in a cryostat through the posterior hypothalamus (tuberomammillary nucleus level: 3.8 to 4.2 mm posterior to bregma) and the brain stem (dorsal raphe nucleus level: 7.3 to 8 mm posterior to bregma; locus coeruleus level: −9.3 to −10 mm posterior to bregma), thaw-mounted (6 sections per slide) and stored at −20°C. After sectioning, the remaining pieces of brain were kept at −80°C for later determination of almorexant brain concentration. The brain and plasma concentrations of almorexant were determined by quantitative liquid chromatography/mass spectrometry/mass spectrometry (LC/MS/MS).

Compound: CNC(=O)[C@@H](c1ccccc1)N1CCc2cc(OC)c(OC)cc2[C@@H]1CCc1ccc(C(F)(F)F)cc1 [almorexant, (2R)-2-[(1S)-6,7-Dimethoxy-1-[2-(4-trifluoromethyl-phenyl)-ethyl]-3,4-dihydro-1H-isoquinolin-2-yl]-N-methyl-2-phenyl-acetamide]
- Ki (hHCRTR1): 4.7 nM
- HCRTR1 RO (HCRTR1; in vivo): 50–60%
- HCRTR1 RO (in words) (HCRTR1; in vivo): returned to basal levels
- HCRTR1 RO, maximum (HCRTR1; in vivo): 59%
- receptor occupancy at 30 mg/kg (HCRTR1; ip, read-out: HCRTR1 occupancy): ~50%
- time at which half-maximal concentrations were achieved (in vivo): 4 and 6
- Kp at 0.5 h (in vivo; ip, 30 mg/kg): 0.28

— PMC3388080 (PLoS ONE, 2012)
